Tested on: 12 single or co-culture in vitro tissue models of primary cells
Experiment: Culture/co-culture cell model panel, extracellular biomarkers (DiscoveRx)
Format: cell-based, human

Cc1n[nH]c2ncc(C(=O)N3CCC[C@H]3c3ccc(Cl)cc3)cc12 [CMPD4]
IL-1alpha (LPS Huvec+PBMC, 1.11E3 nM): 0.016 | M-CSF (LPS Huvec+PBMC, 1.11E3 nM): 0.016 | SRB (LPS Huvec+PBMC, 1.11E3 nM): -0.126 | sPGE2 (LPS Huvec+PBMC, 1.11E3 nM): 0.239 | sTNF-alpha (LPS Huvec+PBMC, 1.11E3 nM): 0.133 | CCL2/MCP-1 (LPS Huvec+PBMC, 1.23E2 nM): -0.026 | CD40 (LPS Huvec+PBMC, 1.23E2 nM): -0.152 | CD62E/E-Selectin (LPS Huvec+PBMC, 1.23E2 nM): 0.006 | CD69 (LPS Huvec+PBMC, 1.23E2 nM): 0.00187 | CD106/VCAM-1 (LPS Huvec+PBMC, 1.23E2 nM): 0.093 | CD141/Thrombomodulin (LPS Huvec+PBMC, 1.23E2 nM): 0.087 | CD142/Tissue Factor (LPS Huvec+PBMC, 1.23E2 nM): 0.139 | CXCL8/IL-8 (LPS Huvec+PBMC, 1.23E2 nM): -0.075 | IL-1alpha (LPS Huvec+PBMC, 1.23E2 nM): 0.044 | M-CSF (LPS Huvec+PBMC, 1.23E2 nM): -0.000401 | SRB (LPS Huvec+PBMC, 1.23E2 nM): -0.089 | sPGE2 (LPS Huvec+PBMC, 1.23E2 nM): 0.245 | sTNF-alpha (LPS Huvec+PBMC, 1.23E2 nM): 0.048 | CCL2/MCP-1 (LPS Huvec+PBMC, 1.37E1 nM): 0.005 | CD40 (LPS Huvec+PBMC, 1.37E1 nM): -0.187 | CD62E/E-Selectin (LPS Huvec+PBMC, 1.37E1 nM): -0.020 | CD69 (LPS Huvec+PBMC, 1.37E1 nM): -0.009 | CD106/VCAM-1 (LPS Huvec+PBMC, 1.37E1 nM): 0.066 | CD141/Thrombomodulin (LPS Huvec+PBMC, 1.37E1 nM): 0.056 | CD142/Tissue Factor (LPS Huvec+PBMC, 1.37E1 nM): 0.073 | CXCL8/IL-8 (LPS Huvec+PBMC, 1.37E1 nM): -0.037 | IL-1alpha (LPS Huvec+PBMC, 1.37E1 nM): -0.072 | M-CSF (LPS Huvec+PBMC, 1.37E1 nM): 0.00323 | SRB (LPS Huvec+PBMC, 1.37E1 nM): -0.040 | sPGE2 (LPS Huvec+PBMC, 1.37E1 nM): 0.171 | sTNF-alpha (LPS Huvec+PBMC, 1.37E1 nM): 0.038 | CCL2/MCP-1 (LPS Huvec+PBMC, 3.33E3 nM): -0.067 | CD40 (LPS Huvec+PBMC, 3.33E3 nM): -0.112 | CD62E/E-Selectin (LPS Huvec+PBMC, 3.33E3 nM): 0.00461 | CD69 (LPS Huvec+PBMC, 3.33E3 nM): 0.059 | CD106/VCAM-1 (LPS Huvec+PBMC, 3.33E3 nM): 0.096 | CD141/Thrombomodulin (LPS Huvec+PBMC, 3.33E3 nM): 0.075 | CD142/Tissue Factor (LPS Huvec+PBMC, 3.33E3 nM): 0.108 | CXCL8/IL-8 (LPS Huvec+PBMC, 3.33E3 nM): -0.193 | IL-1alpha (LPS Huvec+PBMC, 3.33E3 nM): 0.066 | M-CSF (LPS Huvec+PBMC, 3.33E3 nM): 0.023 | SRB (LPS Huvec+PBMC, 3.33E3 nM): -0.130 | sPGE2 (LPS Huvec+PBMC, 3.33E3 nM): 0.179 | sTNF-alpha (LPS Huvec+PBMC, 3.33E3 nM): 0.057 | CCL2/MCP-1 (LPS Huvec+PBMC, 3.70E2 nM): -0.029 | CD40 (LPS Huvec+PBMC, 3.70E2 nM): -0.162 | CD62E/E-Selectin (LPS Huvec+PBMC, 3.70E2 nM): -0.010 | CD69 (LPS Huvec+PBMC, 3.70E2 nM): 0.00559 | CD106/VCAM-1 (LPS Huvec+PBMC, 3.70E2 nM): 0.093 | CD141/Thrombomodulin (LPS Huvec+PBMC, 3.70E2 nM): 0.092 | CD142/Tissue Factor (LPS Huvec+PBMC, 3.70E2 nM): 0.144 | CXCL8/IL-8 (LPS Huvec+PBMC, 3.70E2 nM): -0.137 | IL-1alpha (LPS Huvec+PBMC, 3.70E2 nM): 0.044 | M-CSF (LPS Huvec+PBMC, 3.70E2 nM): -0.012 | SRB (LPS Huvec+PBMC, 3.70E2 nM): -0.096 | sPGE2 (LPS Huvec+PBMC, 3.70E2 nM): 0.189 | sTNF-alpha (LPS Huvec+PBMC, 3.70E2 nM): 0.099 | CCL2/MCP-1 (LPS Huvec+PBMC, 4.12E1 nM): -0.00282 | CD40 (LPS Huvec+PBMC, 4.12E1 nM): -0.180 | CD62E/E-Selectin (LPS Huvec+PBMC, 4.12E1 nM): -0.032 | CD69 (LPS Huvec+PBMC, 4.12E1 nM): 0.017 | CD106/VCAM-1 (LPS Huvec+PBMC, 4.12E1 nM): 0.090 | CD141/Thrombomodulin (LPS Huvec+PBMC, 4.12E1 nM): 0.090 | CD142/Tissue Factor (LPS Huvec+PBMC, 4.12E1 nM): 0.115 | CXCL8/IL-8 (LPS Huvec+PBMC, 4.12E1 nM): -0.044 | IL-1alpha (LPS Huvec+PBMC, 4.12E1 nM): 0.017 | M-CSF (LPS Huvec+PBMC, 4.12E1 nM): -0.0023 | SRB (LPS Huvec+PBMC, 4.12E1 nM): -0.053 | sPGE2 (LPS Huvec+PBMC, 4.12E1 nM): 0.230 | sTNF-alpha (LPS Huvec+PBMC, 4.12E1 nM): 0.081 | CCL2/MCP-1 (LPS Huvec+PBMC, 4.57E0 nM): -0.00276 | CD40 (LPS Huvec+PBMC, 4.57E0 nM): -0.174 | CD62E/E-Selectin (LPS Huvec+PBMC, 4.57E0 nM): -0.017 | CD69 (LPS Huvec+PBMC, 4.57E0 nM): 0.019 | CD106/VCAM-1 (LPS Huvec+PBMC, 4.57E0 nM): 0.051 | CD141/Thrombomodulin (LPS Huvec+PBMC, 4.57E0 nM): 0.058 | CD142/Tissue Factor (LPS Huvec+PBMC, 4.57E0 nM): 0.062 | CXCL8/IL-8 (LPS Huvec+PBMC, 4.57E0 nM): -0.024 | IL-1alpha (LPS Huvec+PBMC, 4.57E0 nM): -0.00758 | M-CSF (LPS Huvec+PBMC, 4.57E0 nM): -0.005 | SRB (LPS Huvec+PBMC, 4.57E0 nM): -0.016 | sPGE2 (LPS Huvec+PBMC, 4.57E0 nM): 0.124 | sTNF-alpha (LPS Huvec+PBMC, 4.57E0 nM): -0.057 | CCL2/MCP-1 (SAg, 1.00E4 nM): -0.077 | CD38 (SAg, 1.00E4 nM): -0.031 | CD40 (SAg, 1.00E4 nM): -0.104 | CD62E/E-Selectin (SAg, 1.00E4 nM): 0.099 | CD69 (SAg, 1.00E4 nM): 0.140 | CXCL8/IL-8 (SAg, 1.00E4 nM): -0.277 | CXCL9/MIG (SAg, 1.00E4 nM): -0.047 | PBMC Cytotoxicity (SAg, 1.00E4 nM): 0.013 | Proliferation (SAg, 1.00E4 nM): -0.003 | SRB (SAg, 1.00E4 nM): -0.133 | CCL2/MCP-1 (SAg, 1.11E3 nM): -0.125 | CD38 (SAg, 1.11E3 nM): -0.063 | CD40 (SAg, 1.11E3 nM): -0.103 | CD62E/E-Selectin (SAg, 1.11E3 nM): 0.135 | CD69 (SAg, 1.11E3 nM): 0.166 | CXCL8/IL-8 (SAg, 1.11E3 nM): -0.272 | CXCL9/MIG (SAg, 1.11E3 nM): -0.097 | PBMC Cytotoxicity (SAg, 1.11E3 nM): 0.007 | Proliferation (SAg, 1.11E3 nM): -0.000932 | SRB (SAg, 1.11E3 nM): -0.168 | CCL2/MCP-1 (SAg, 1.23E2 nM): -0.092 | CD38 (SAg, 1.23E2 nM): -0.087 | CD40 (SAg, 1.23E2 nM): -0.136 | CD62E/E-Selectin (SAg, 1.23E2 nM): 0.130 | CD69 (SAg, 1.23E2 nM): 0.140 | CXCL8/IL-8 (SAg, 1.23E2 nM): -0.108 | CXCL9/MIG (SAg, 1.23E2 nM): -0.076 | PBMC Cytotoxicity (SAg, 1.23E2 nM): -0.032 | Proliferation (SAg, 1.23E2 nM): 0.030 | SRB (SAg, 1.23E2 nM): -0.149 | CCL2/MCP-1 (SAg, 1.37E1 nM): -0.019 | CD38 (SAg, 1.37E1 nM): -0.064 | CD40 (SAg, 1.37E1 nM): -0.117 | CD62E/E-Selectin (SAg, 1.37E1 nM): 0.101 | CD69 (SAg, 1.37E1 nM): 0.100 | CXCL8/IL-8 (SAg, 1.37E1 nM): -0.060 | CXCL9/MIG (SAg, 1.37E1 nM): -0.029 | PBMC Cytotoxicity (SAg, 1.37E1 nM): 0.005 | Proliferation (SAg, 1.37E1 nM): -0.021 | SRB (SAg, 1.37E1 nM): -0.058 | CCL2/MCP-1 (SAg, 3.33E3 nM): -0.104 | CD38 (SAg, 3.33E3 nM): -0.056 | CD40 (SAg, 3.33E3 nM): -0.138 | CD62E/E-Selectin (SAg, 3.33E3 nM): 0.125 | CD69 (SAg, 3.33E3 nM): 0.148 | CXCL8/IL-8 (SAg, 3.33E3 nM): -0.259 | CXCL9/MIG (SAg, 3.33E3 nM): -0.085 | PBMC Cytotoxicity (SAg, 3.33E3 nM): -0.00278 | Proliferation (SAg, 3.33E3 nM): -0.016 | SRB (SAg, 3.33E3 nM): -0.179 | CCL2/MCP-1 (SAg, 3.70E2 nM): -0.123 | CD38 (SAg, 3.70E2 nM): -0.080 | CD40 (SAg, 3.70E2 nM): -0.137 | CD62E/E-Selectin (SAg, 3.70E2 nM): 0.119 | CD69 (SAg, 3.70E2 nM): 0.128 | CXCL8/IL-8 (SAg, 3.70E2 nM): -0.284 | CXCL9/MIG (SAg, 3.70E2 nM): -0.085 | PBMC Cytotoxicity (SAg, 3.70E2 nM): -0.040 | Proliferation (SAg, 3.70E2 nM): -0.011 | SRB (SAg, 3.70E2 nM): -0.146 | CCL2/MCP-1 (SAg, 4.12E1 nM): -0.056 | CD38 (SAg, 4.12E1 nM): -0.062 | CD40 (SAg, 4.12E1 nM): -0.124 | CD62E/E-Selectin (SAg, 4.12E1 nM): 0.124 | CD69 (SAg, 4.12E1 nM): 0.126 | CXCL8/IL-8 (SAg, 4.12E1 nM): -0.119 | CXCL9/MIG (SAg, 4.12E1 nM): -0.046 | PBMC Cytotoxicity (SAg, 4.12E1 nM): -0.001 | Proliferation (SAg, 4.12E1 nM): 0.000938 | SRB (SAg, 4.12E1 nM): -0.102 | CCL2/MCP-1 (SAg, 4.57E0 nM): 0.040 | CD38 (SAg, 4.57E0 nM): -0.052 | CD40 (SAg, 4.57E0 nM): -0.084 | CD62E/E-Selectin (SAg, 4.57E0 nM): 0.070 | CD69 (SAg, 4.57E0 nM): 0.062 | CXCL8/IL-8 (SAg, 4.57E0 nM): 0.007 | CXCL9/MIG (SAg, 4.57E0 nM): -0.031 | PBMC Cytotoxicity (SAg, 4.57E0 nM): 0.015 | Proliferation (SAg, 4.57E0 nM): 0.009 | SRB (SAg, 4.57E0 nM): 0.029

Reference: PMC5224920, “Assessing the mechanism and therapeutic potential of modulators of the human Mediator complex-associated protein kinases” (eLife, 2016)
